Experiments:
[1] = target: RSK2 domain1 (Homo sapiens (Human), UniProt P51812); assay: ActivX kinase probe assay (human PBMC); assay type: binding; conditions: RSK2 domain1, read-out: percent inhibition
[2] = target: FAK (Homo sapiens (Human), UniProt Q05397); assay: ActivX kinase probe assay (human PBMC); assay type: binding; conditions: FAK, read-out: percent inhibition
[3] = target: FGR (Homo sapiens (Human), UniProt P09769); assay: ActivX kinase probe assay (human PBMC); assay type: binding; conditions: FGR, read-out: percent inhibition
FGR, sequence (P09769 whole entry): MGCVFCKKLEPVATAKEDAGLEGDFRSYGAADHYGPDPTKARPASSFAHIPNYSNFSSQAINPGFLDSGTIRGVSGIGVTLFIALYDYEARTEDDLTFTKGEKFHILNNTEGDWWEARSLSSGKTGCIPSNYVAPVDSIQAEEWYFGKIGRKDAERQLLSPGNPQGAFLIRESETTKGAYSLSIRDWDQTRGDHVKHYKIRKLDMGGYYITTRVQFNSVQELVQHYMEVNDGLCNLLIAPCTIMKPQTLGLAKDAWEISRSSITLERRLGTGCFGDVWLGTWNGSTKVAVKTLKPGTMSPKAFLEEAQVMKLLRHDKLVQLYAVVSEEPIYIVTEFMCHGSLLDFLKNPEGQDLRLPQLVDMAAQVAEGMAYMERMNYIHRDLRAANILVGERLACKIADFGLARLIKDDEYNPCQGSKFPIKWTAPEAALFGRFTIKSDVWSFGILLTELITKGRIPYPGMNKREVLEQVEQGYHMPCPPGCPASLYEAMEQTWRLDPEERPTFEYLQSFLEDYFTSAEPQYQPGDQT

[4] = target: MST2 (Homo sapiens (Human), UniProt Q13188); assay: ActivX kinase probe assay (human PBMC); assay type: binding; conditions: read-out: percent inhibition
[5] = target: CaMK1d (Homo sapiens (Human), UniProt Q8IU85); assay: ActivX kinase probe assay (human PBMC); assay type: binding; conditions: CaMK1d, read-out: percent inhibition
[6] = target: LATS1 (Homo sapiens (Human), UniProt O95835); assay: ActivX kinase probe assay (human PBMC); assay type: binding; conditions: LATS1, read-out: percent inhibition
[7] = target: IKKa (Homo sapiens (Human), UniProt O15111); assay: ActivX kinase probe assay (human PBMC); assay type: binding; conditions: IKKa, read-out: percent inhibition
IKKa, sequence (O15111 whole entry): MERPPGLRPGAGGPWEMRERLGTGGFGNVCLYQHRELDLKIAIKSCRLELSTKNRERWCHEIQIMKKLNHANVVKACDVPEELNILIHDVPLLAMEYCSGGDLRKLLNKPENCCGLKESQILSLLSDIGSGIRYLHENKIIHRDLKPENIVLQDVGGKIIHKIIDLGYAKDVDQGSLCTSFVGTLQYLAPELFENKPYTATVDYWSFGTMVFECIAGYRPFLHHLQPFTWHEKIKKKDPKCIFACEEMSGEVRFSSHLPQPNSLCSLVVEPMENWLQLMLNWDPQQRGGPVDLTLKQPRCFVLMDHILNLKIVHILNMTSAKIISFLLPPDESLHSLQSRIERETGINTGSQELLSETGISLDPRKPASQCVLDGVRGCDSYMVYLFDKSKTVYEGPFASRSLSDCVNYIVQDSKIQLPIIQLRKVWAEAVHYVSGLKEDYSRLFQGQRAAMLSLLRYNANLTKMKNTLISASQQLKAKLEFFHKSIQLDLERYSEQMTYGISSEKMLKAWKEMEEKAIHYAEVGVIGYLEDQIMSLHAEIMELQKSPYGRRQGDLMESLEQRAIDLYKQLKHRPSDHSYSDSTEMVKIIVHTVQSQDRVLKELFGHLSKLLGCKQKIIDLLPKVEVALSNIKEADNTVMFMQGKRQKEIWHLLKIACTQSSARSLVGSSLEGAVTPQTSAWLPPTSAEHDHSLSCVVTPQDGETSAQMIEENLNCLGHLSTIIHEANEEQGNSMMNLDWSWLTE

[8] = target: PIK3CD (Homo sapiens (Human), UniProt O00329); assay: ActivX kinase probe assay (human PBMC); assay type: binding; conditions: PIK3CD, read-out: percent inhibition
PIK3CD, sequence (O00329 whole entry): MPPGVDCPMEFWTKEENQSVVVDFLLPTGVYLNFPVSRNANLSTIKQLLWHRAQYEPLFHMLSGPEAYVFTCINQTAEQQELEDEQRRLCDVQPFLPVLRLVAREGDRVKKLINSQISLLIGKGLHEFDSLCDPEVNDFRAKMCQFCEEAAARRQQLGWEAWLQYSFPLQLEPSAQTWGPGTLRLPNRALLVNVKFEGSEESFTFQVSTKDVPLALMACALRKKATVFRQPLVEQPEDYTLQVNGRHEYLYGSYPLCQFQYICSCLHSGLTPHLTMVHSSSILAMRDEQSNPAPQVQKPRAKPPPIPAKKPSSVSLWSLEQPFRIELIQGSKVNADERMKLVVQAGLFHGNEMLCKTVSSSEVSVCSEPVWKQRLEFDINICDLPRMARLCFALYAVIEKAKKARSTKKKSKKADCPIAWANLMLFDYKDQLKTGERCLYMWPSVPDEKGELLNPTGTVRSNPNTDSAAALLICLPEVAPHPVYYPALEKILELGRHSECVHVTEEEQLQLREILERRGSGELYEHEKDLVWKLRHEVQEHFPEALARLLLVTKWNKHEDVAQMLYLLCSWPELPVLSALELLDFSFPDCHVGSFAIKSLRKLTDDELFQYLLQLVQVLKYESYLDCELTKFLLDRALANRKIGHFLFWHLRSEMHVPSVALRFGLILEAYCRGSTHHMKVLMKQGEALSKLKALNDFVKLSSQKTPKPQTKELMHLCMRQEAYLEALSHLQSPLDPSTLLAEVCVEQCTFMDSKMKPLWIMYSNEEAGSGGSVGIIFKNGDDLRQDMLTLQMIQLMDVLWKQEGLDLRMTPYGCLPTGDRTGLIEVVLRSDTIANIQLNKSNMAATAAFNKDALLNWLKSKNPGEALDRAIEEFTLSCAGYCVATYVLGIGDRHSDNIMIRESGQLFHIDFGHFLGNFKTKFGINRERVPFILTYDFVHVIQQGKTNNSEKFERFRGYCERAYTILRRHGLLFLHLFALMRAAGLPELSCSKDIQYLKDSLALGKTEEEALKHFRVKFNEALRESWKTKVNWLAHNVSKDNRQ
PIK3CD, sequence (P27986 whole entry partner): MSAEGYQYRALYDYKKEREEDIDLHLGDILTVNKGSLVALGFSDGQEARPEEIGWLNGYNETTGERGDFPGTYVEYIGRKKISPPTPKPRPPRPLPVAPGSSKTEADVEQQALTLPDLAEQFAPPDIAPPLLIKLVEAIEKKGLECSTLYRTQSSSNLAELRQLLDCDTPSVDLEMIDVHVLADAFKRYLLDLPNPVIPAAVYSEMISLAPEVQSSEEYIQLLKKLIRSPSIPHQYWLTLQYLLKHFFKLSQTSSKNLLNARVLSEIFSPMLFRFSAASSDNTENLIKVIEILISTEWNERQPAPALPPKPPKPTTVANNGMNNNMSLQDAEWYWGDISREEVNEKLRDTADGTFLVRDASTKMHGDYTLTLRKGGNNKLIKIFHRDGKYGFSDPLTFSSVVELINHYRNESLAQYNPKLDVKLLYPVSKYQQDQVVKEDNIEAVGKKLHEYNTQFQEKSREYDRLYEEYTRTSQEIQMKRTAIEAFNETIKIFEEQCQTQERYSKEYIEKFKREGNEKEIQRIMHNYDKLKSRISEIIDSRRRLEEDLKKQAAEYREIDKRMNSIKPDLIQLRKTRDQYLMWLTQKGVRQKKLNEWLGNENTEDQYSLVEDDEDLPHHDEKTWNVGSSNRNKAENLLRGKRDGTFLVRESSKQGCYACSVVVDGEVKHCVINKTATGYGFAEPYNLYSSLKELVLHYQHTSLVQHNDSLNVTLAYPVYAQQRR

[9] = target: PKD2 (Homo sapiens (Human), UniProt Q9BZL6); assay: ActivX kinase probe assay (human PBMC); assay type: binding; conditions: PKD2, read-out: percent inhibition
[10] = target: PIP4K2A (Homo sapiens (Human), UniProt P48426); assay: ActivX kinase probe assay (human PBMC); assay type: binding; conditions: PIP4K2A, read-out: percent inhibition
[11] = target: mutant G2019S LRRK2 (Homo sapiens (Human), UniProt Q5S007, G2019S); assay: LRRK2 Lantha Screen kinase assay, mutant enzyme; assay type: biochemical; conditions: geometric mean of 2-5 determinations unless otherwise indicated (a: >=6 determinations; b: single determination)
[12] = target: MARK2 (Homo sapiens (Human), UniProt Q7KZI7); assay: ActivX kinase probe assay (human PBMC); assay type: binding; conditions: MARK2, read-out: percent inhibition
[13] = target: BTK (Homo sapiens (Human), UniProt Q06187); assay: ActivX kinase probe assay (human PBMC); assay type: binding; conditions: BTK, read-out: percent inhibition
[14] = target: p70S6Kb (Homo sapiens (Human), UniProt Q9UBS0); assay: ActivX kinase probe assay (human PBMC); assay type: binding; conditions: p70S6Kb, read-out: percent inhibition
[15] = target: PYK2 (Homo sapiens (Human), UniProt Q14289); assay: ActivX kinase probe assay (human PBMC); assay type: binding; conditions: PYK2, read-out: percent inhibition
[16] = test system: PCTAIRE2, PCTAIRE3; assay: ActivX kinase probe assay (human PBMC); assay type: binding
[17] = target: OSR1 (Homo sapiens (Human), UniProt O95747); assay: ActivX kinase probe assay (human PBMC); assay type: binding; conditions: OSR1, read-out: percent inhibition
OSR1, sequence (O95747 whole entry): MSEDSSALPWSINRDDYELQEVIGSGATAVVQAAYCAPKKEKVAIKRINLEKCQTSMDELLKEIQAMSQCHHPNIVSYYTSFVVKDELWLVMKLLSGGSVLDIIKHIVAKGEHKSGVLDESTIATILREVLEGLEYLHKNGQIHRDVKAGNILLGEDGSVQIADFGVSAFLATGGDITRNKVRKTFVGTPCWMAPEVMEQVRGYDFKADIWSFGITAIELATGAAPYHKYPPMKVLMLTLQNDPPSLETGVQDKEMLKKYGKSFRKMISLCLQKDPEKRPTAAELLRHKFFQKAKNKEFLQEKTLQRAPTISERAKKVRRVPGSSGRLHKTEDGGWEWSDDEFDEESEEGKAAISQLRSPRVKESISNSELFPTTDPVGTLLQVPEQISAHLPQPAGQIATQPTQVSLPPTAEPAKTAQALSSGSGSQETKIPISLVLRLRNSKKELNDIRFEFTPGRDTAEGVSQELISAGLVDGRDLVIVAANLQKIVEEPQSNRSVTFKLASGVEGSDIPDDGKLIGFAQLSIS

[18] = target: PI4KB (Homo sapiens (Human), UniProt Q9UBF8); assay: ActivX kinase probe assay (human PBMC); assay type: binding; conditions: PI4KB, read-out: percent inhibition
[19] = target: RSK1 domain1 (Homo sapiens (Human), UniProt Q15418); assay: ActivX kinase probe assay (human PBMC); assay type: binding; conditions: RSK1 domain1, read-out: percent inhibition
RSK1 domain1, sequence (Q15418 whole entry, the tested form may be a part): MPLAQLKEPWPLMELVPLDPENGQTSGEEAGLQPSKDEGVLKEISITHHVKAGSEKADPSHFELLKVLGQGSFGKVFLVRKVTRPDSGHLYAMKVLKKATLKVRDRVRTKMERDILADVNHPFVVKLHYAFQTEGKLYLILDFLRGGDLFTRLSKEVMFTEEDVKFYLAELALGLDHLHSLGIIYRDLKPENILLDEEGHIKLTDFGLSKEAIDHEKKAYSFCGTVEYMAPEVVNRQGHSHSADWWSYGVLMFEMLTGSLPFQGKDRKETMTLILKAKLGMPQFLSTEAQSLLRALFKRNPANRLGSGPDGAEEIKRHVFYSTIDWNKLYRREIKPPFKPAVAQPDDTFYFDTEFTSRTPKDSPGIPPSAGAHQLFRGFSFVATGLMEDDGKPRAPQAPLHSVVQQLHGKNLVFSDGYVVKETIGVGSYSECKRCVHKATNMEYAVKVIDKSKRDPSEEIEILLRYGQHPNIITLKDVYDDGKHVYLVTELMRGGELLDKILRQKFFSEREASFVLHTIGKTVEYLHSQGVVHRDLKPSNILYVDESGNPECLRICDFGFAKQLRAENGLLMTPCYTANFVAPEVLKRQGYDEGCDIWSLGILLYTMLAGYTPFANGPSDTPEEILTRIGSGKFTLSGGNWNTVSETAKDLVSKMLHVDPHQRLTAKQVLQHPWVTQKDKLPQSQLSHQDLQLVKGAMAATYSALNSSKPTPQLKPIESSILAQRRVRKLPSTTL

[20] = test system: FYN, SRC, YES; assay: ActivX kinase probe assay (human PBMC); assay type: binding
[21] = target: IRE1 (Homo sapiens (Human), UniProt O75460); assay: ActivX kinase probe assay (human PBMC); assay type: binding; conditions: IRE1, read-out: percent inhibition
[22] = target: MAP3K4 (Homo sapiens (Human), UniProt Q9Y6R4); assay: ActivX kinase probe assay (human PBMC); assay type: binding; conditions: MAP3K4, read-out: percent inhibition
[23] = target: TAO2 (Homo sapiens (Human), UniProt Q9UL54); assay: ActivX kinase probe assay (human PBMC); assay type: binding; conditions: TAO2, read-out: percent inhibition
[24] = test system: AKT2, AKT3; assay: ActivX kinase probe assay (human PBMC); assay type: binding
[25] = target: MAP3K3 (Homo sapiens (Human), UniProt Q99759); assay: ActivX kinase probe assay (human PBMC); assay type: binding; conditions: MAP3K3, read-out: percent inhibition
[26] = target: LYN (Homo sapiens (Human), UniProt P07948); assay: ActivX kinase probe assay (human PBMC); assay type: binding; conditions: LYN, read-out: percent inhibition
LYN, sequence (P07948 whole entry): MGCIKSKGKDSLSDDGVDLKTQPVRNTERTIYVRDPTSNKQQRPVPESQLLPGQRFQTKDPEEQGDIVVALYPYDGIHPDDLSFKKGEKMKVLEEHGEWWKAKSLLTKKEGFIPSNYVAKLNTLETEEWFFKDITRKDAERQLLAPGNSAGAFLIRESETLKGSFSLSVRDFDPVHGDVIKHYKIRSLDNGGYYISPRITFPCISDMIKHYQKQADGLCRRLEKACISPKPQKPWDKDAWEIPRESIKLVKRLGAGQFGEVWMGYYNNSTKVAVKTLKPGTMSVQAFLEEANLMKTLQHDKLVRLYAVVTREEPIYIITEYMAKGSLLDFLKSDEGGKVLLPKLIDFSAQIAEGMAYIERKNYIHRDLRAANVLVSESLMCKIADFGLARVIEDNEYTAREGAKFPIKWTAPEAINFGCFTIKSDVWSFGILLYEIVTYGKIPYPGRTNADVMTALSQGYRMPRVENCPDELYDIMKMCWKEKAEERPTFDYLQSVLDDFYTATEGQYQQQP

[27] = target: PIK3CB (Homo sapiens (Human), UniProt P42338); assay: ActivX kinase probe assay (human PBMC); assay type: binding; conditions: PIK3CB, read-out: percent inhibition
[28] = test system: CDK11, CDK8; assay: ActivX kinase probe assay (human PBMC); assay type: binding
[29] = test system: MST1, MST2; assay: ActivX kinase probe assay (human PBMC); assay type: binding
[30] = target: MST1 (Homo sapiens (Human), UniProt Q13043); assay: ActivX kinase probe assay (human PBMC); assay type: binding; conditions: read-out: percent inhibition
[31] = target: DNAPK (Homo sapiens (Human), UniProt P78527); assay: ActivX kinase probe assay (human PBMC); assay type: binding; conditions: DNAPK, read-out: percent inhibition
[32] = target: GSK3A (Homo sapiens (Human), UniProt P49840); assay: ActivX kinase probe assay (human PBMC); assay type: binding; conditions: GSK3A, read-out: percent inhibition

Cn1cc(-c2c[nH]c3ncnc(N4CCOCC4)c23)cc1C#N [Example 217, 1-methyl-4-[4-(morpholin-4-yl)-7H-pyrrolo[2,3-d]pyrimidin-5-yl]-1H-pyrrole-2-carbonitrile] gave an inhibition at 0.1 µM ([1]; 0.1 μM) of 13.2%, an inhibition at 1 µM ([1]; 1 μM) of 61.6% and an inhibition at 0.1 µM ([2]; 0.1 μM) of 8.1%. It also gave an inhibition at 1 µM ([2]; 1 μM) of 17.4%, an inhibition at 0.1 µM ([3]; 0.1 μM) of -1.2% and an inhibition at 1 µM ([3]; 1 μM) of -0.5%. It also gave an inhibition at 0.1 µM ([4]; 0.1 μM) of 34.9%, an inhibition at 1 µM ([4]; 1 μM) of 83.2% and an inhibition at 0.1 µM ([5]; 0.1 μM) of 11.7%. The inhibition at 1 µM ([5]; 1 μM) was 3.1%, the inhibition at 0.1 µM ([6]; 0.1 μM) was -3.9% and the inhibition at 1 µM ([6]; 1 μM) was 1.9%. The inhibition at 0.1 µM ([7]; 0.1 μM) was -2.5%, the inhibition at 1 µM ([7]; 1 μM) was -3.7% and the inhibition at 0.1 µM ([8]; 0.1 μM) was -0.4%. The inhibition at 1 µM ([8]; 1 μM) was 10%, the inhibition at 0.1 µM ([9]; 0.1 μM) was 5.8% and the inhibition at 1 µM ([9]; 1 μM) was 4.5%. It also gave an inhibition at 0.1 µM ([10]; 0.1 μM) of 7.8%, an inhibition at 1 µM ([10]; 1 μM) of 8.2% and an IC50 [11] of 13 nM. It also gave an inhibition at 0.1 µM ([12]; 0.1 μM) of -5%, an inhibition at 1 µM ([12]; 1 μM) of 13.1% and an inhibition at 0.1 µM ([13]; 0.1 μM) of 24.3%. The inhibition at 1 µM ([13]; 1 μM) was 8.5%, the inhibition at 0.1 µM ([14]; 0.1 μM) was -2.2% and the inhibition at 1 µM ([14]; 1 μM) was -16.7%. The inhibition at 0.1 µM ([15]; 0.1 μM) was -1%, the inhibition at 1 µM ([15]; 1 μM) was 8.4% and the percent inhibition ([16]; 0.1 μM) was −2.6%. The percent inhibition ([16]; 1 μM) was 15.1%, the inhibition at 0.1 µM ([17]; 0.1 μM) was 5.2% and the inhibition at 1 µM ([17]; 1 μM) was -12.3%. The inhibition at 0.1 µM ([18]; 0.1 μM) was 9.9%, the inhibition at 1 µM ([18]; 1 μM) was -0.5% and the inhibition at 0.1 µM ([19]; 0.1 μM) was 27.6%. The inhibition at 1 µM ([19]; 1 μM) was 45.6%, the percent inhibition ([20]; 0.1 μM) was 18.4% and the percent inhibition ([20]; 1 μM) was −1.4%. For the same molecule, the inhibition at 0.1 µM ([21]; 0.1 μM) was 3.2%, the inhibition at 1 µM ([21]; 1 μM) was -19.5% and the inhibition at 0.1 µM ([22]; 0.1 μM) was -35.5%. For the same molecule, the inhibition at 1 µM ([22]; 1 μM) was -27.4%, the inhibition at 0.1 µM ([23]; 0.1 μM) was -20.2% and the inhibition at 1 µM ([23]; 1 μM) was -18.4%. For the same molecule, the percent inhibition ([24]; 0.1 μM) was −9.7%, the percent inhibition ([24]; 1 μM) was −3.8% and the inhibition at 0.1 µM ([25]; 0.1 μM) was -3.4%. For the same molecule, the inhibition at 1 µM ([25]; 1 μM) was -6.7%, the inhibition at 0.1 µM ([26]; 0.1 μM) was 8.3% and the inhibition at 1 µM ([26]; 1 μM) was -19.2%. The inhibition at 0.1 µM ([27]; 0.1 μM) was -5.3%, the inhibition at 1 µM ([27]; 1 μM) was -29.7% and the percent inhibition ([28]; 0.1 μM) was −5.6%. It also gave a percent inhibition ([28]; 1 μM) of −5.2%, a percent inhibition ([29]; 0.1 μM) of 21.9% and a percent inhibition ([29]; 1 μM) of 72.6%. It also gave an inhibition at 0.1 µM ([30]; 0.1 μM) of 25.6%, an inhibition at 1 µM ([30]; 1 μM) of 73.5% and an inhibition at 0.1 µM ([31]; 0.1 μM) of 31%. It also gave an inhibition at 1 µM ([31]; 1 μM) of 31.5%, an inhibition at 0.1 µM ([32]; 0.1 μM) of 0.6% and an inhibition at 1 µM ([32]; 1 μM) of 8.9%.

From patent US9156845B2, “4-(substituted amino)-7H-pyrrolo[2,3-d] pyrimidines as LRRK2 inhibitors” (Pfizer Inc., priority 2012, dated 2015)
